Data as given in ChEMBL document CHEMBL5705896 (ACS Chem Biol, 2013).
pEC50, pIC50: −log10 of the molar value. Calls of active or inactive are those of the source. No cut-off for these calls is given here.

Assays:
[1] = biological target: T1, Histone-lysine N-methyltransferase EZH2 (Homo sapiens, UniProt Q15910); test: Inhibition of EZH2 methyltransferase activity (unknown origin) in PRC2 complex using 3H-SAM as substrate by Scintillation proximity assay
Target sequence in this assay (Q15910 whole entry): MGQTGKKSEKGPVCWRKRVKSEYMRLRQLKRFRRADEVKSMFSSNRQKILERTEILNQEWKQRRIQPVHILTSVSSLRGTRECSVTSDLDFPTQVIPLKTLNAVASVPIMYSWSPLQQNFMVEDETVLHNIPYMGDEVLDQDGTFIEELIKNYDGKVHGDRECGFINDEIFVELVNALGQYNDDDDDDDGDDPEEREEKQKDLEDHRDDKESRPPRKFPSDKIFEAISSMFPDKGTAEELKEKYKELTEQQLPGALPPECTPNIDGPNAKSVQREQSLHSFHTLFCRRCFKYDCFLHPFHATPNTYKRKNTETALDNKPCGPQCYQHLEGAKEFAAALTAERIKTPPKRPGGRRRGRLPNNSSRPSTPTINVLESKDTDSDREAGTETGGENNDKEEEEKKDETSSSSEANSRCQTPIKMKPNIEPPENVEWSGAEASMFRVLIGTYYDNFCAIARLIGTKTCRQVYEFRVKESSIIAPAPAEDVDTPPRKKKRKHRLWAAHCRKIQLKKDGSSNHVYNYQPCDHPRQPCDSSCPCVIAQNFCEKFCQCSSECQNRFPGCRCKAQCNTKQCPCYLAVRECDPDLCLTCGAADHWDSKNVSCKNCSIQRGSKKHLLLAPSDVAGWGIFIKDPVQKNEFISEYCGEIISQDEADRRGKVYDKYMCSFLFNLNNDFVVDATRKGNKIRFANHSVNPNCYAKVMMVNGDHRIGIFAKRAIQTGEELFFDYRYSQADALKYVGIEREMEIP

[2] = biological target: T1, Histone-lysine N-methyltransferase EZH2; test: Binding affinity to GFP-tagged EZH2 in HEK293 cells assessed as nuclear colocalization at 3.75 uM incubated for 15 mins by imaging based analysis; assay type: cell-based
Target sequence in this assay (Q15910 whole entry, looked up): as the sequence (Q15910 whole entry) above

[3] = biological target: Histone-lysine N-methyltransferase EZH2 (Mus musculus) (UniProt Q61188); test: Binding affinity to EZH2 in mouse MEF cells expressing YPet fluorophore assessed as increase in fluorescence intensity in nucleus at 3.75 uM incubated for 15 mins; assay type: cell-based
Chain of Histone-lysine N-methyltransferase EZH2 (Mus musculus) (Q61188 whole entry): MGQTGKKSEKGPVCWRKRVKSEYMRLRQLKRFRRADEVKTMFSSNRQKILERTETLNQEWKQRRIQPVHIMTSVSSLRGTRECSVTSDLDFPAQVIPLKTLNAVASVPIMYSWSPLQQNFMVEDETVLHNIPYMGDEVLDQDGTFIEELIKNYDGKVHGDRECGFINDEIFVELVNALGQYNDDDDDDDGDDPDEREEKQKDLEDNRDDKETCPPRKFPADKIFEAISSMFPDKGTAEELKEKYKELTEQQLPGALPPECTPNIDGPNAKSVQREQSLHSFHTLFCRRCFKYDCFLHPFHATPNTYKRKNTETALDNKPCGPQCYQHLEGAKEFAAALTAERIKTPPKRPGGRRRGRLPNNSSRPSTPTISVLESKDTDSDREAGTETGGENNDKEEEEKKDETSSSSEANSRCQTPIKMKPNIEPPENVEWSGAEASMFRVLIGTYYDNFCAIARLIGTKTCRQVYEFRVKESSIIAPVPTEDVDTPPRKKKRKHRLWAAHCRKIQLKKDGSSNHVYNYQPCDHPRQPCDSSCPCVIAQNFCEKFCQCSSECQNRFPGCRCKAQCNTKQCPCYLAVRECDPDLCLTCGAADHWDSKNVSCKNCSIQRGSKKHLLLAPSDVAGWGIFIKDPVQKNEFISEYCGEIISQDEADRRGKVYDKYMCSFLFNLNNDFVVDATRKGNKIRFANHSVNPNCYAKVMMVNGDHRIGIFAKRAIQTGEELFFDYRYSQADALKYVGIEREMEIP

[4] = Cytotoxicity against human MCF-10A cells assessed as reduction in cell viability by alamar blue assay; assay type: toxicity, cell-based
[5] = biological target: Histone-lysine N-methyltransferase EZH1 (Homo sapiens, UniProt Q92800); test: Inhibition of EZH1 methyltransferase activity (unknown origin) in PRC2 complex using 3H-SAM as substrate by Scintillation proximity assay
Chain of Histone-lysine N-methyltransferase EZH1 (Q92800 whole entry): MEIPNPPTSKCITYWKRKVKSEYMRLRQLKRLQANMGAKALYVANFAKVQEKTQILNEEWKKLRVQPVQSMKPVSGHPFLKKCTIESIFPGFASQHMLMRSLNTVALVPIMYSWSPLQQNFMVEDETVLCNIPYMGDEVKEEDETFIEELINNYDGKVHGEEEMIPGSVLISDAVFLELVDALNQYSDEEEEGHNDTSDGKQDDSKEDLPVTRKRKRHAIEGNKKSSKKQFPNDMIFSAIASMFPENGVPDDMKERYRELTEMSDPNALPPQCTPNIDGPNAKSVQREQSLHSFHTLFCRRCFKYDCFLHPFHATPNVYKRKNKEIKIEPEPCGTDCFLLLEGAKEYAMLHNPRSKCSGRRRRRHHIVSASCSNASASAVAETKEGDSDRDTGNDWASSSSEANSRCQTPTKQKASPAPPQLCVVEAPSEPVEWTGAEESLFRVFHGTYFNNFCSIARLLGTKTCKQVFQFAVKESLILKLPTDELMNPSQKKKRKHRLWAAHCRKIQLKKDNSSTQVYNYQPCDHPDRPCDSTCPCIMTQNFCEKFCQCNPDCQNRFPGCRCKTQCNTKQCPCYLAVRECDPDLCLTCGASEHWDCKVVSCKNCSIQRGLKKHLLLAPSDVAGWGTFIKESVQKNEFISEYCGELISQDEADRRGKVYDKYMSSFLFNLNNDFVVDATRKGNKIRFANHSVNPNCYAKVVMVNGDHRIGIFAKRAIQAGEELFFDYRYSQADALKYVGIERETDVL

DB [6] = test: Downregulation of H3K27me3 level in human DB cells at 3000 nM measured after 3 days; assay type: functional, cell-based; details: time 3.0 day
[7] = biological target: Histone-lysine N-methyltransferase EZH2 (Homo sapiens, UniProt Q15910, Y641F); test: Inhibition of EZH2 Y641F mutant (unknown origin) using HMT as substrate incubated for 60 mins by luminescence based analysis
Chain of Histone-lysine N-methyltransferase EZH2 (Homo sapiens, UniProt Q15910, Y641F) (Q15910 whole entry Y641F): as the sequence (Q15910 whole entry) above, with Y641F counted along it

DB [8] = test: Antiproliferative activity against human DB cells assessed as reduction in cell viability at 3000 nM measured after 8 days by cell proliferation assay; assay type: functional, cell-based; details: time 8.0 day
DB [9] = test: Downregulation of EZH2 level in human DB cells at 3000 nM measured after 3 days; assay type: functional, cell-based; details: time 3.0 day

SMILES | pIC50 [1] | further results
CCCc1cc(C)[nH]c(=O)c1CNC(=O)c1cc(-c2ccc(N3CCN(C)CC3)nc2)cc2c1cnn2C(C)C | > 8.00 | 
CCCc1cc(C)[nH]c(=O)c1CNC(=O)c1cc(-c2ccc(N3CCN(C(=O)CCOCCOCCOCCOCCOCCOCCOCCOCCOCCOCCOCCOCCNC(=O)CCCC[C@@H]4SC[C@@H]5NC(=O)N[C@@H]54)CC3)nc2)cc2c1cnn2C(C)C | 7.77 | 
CCCc1cc(C)[nH]c(=O)c1CNC(=O)c1cc(-c2ccc(N3CCN(CCCCc4cn(CCN5C(=O)/C(=C/C=C/C=C6\N(CCC(=O)OCOC(C)=O)c7ccc(C(=O)OCOC(C)=O)cc7C6(C)C)C(=O)N(CC)C5=O)nn4)CC3)nc2)cc2c1cnn2C(C)C | 7.68 | Activity [2]: Active; Activity [3]: Active
CCCc1cc(C)[nH]c(=O)c1CNC(=O)c1cc(-c2ccc(N3CCN(CC)CC3)nc2)cc2c1cnn2C(C)C | > 8.00 | 
CCCc1cc(C)[nH]c(=O)c1CNC(=O)c1cc(-c2ccc(F)cn2)cc2c1cnn2C(C)C | 8.00 | 
CCCc1cc(C)n(C)c(=O)c1CN(C)C(=O)c1cc(-c2ccc(N3CCN(C(C)C)CC3)nc2)cc2c1cnn2C(C)C | 4.89 | pEC50 [4]: 4.56; pIC50 [5]: 4.21; Activity (DB [6]): inactive; pIC50 [7]: < 3.70; Activity (DB [8]): inactive; Activity (DB [9]): inactive
CCCc1cc(C)[nH]c(=O)c1CNC(=O)c1cc(-c2ccc(F)cc2)cc2c1cnn2C(C)C | 7.20 | 
CCCc1cc(C)[nH]c(=O)c1CNC(=O)c1cc(-c2ccc(N3CCNCC3)nc2)cc2c1cnn2C(C)C | > 8.00 | 
